Measured values taken from ChEMBL document CHEMBL1127586, “Central cholinergic agents. 6. Synthesis and evaluation of 3-[1-(phenylmethyl)-4-piperidinyl]-1-(2,3,4,5-tetrahydro-1H-1-benzazepi n-8-yl)-1-propanones and their analogs as central selective acetylcholinesterase inhibitors” (J Med Chem, 1994).
Several values for one entry are separate records, joined by “and”; a condition that tells them apart may be missing. Identical values can stand only once.

Experiments:
Rattus norvegicus [1] = assay: Number of circlings observed for 30 min at 3 mg/kg orally administered dose in rats; type: functional; settings: route oral
Rattus norvegicus [2] = assay: Peripheral cholinergic effects in male wistar rats when administered orally at a dose of 10 mg/Kg.; type: functional, organism-based
Rattus norvegicus [3] = assay: Peripheral cholinergic effects in male wistar rats when administered orally at a dose of 3 mg/Kg.; type: functional, organism-based
Rattus norvegicus [4] = assay: Effect of compound on peripheral cholinergic effects in male wistar rats when administered orally at a dose of 30 mg/Kg; fasciculation, lacrimation; type: functional, organism-based
Acetylcholinesterase = target: T1, Acetylcholinesterase (Rattus norvegicus, UniProt P37136)
T1 sequence (P37136 whole entry): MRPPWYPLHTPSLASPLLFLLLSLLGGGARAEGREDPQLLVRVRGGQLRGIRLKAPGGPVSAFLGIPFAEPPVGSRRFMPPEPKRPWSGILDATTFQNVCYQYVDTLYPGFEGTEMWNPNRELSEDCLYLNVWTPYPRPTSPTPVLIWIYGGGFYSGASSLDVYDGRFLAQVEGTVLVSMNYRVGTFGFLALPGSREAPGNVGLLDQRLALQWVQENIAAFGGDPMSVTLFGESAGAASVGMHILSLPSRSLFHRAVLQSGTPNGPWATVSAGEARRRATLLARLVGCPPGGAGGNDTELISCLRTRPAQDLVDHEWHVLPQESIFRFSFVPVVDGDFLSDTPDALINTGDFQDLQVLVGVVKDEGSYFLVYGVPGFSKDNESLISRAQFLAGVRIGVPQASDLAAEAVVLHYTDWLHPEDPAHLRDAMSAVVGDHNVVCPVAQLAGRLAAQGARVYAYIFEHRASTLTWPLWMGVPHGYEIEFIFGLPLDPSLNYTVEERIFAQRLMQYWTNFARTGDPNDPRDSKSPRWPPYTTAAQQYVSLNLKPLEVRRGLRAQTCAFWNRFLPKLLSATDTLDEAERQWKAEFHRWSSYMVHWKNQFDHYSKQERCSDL
Description: Inhibition of acetylcholinesterase (AChE)

Rattus norvegicus [5] = assay: Effect of compound on peripheral cholinergic effects in male wistar rats when administered orally at a dose of 10 mg/Kg; salivation; type: functional, organism-based
Rattus norvegicus [6] = species on record: Rattus norvegicus; settings: dose 10 mg/kg; route oral
Description: Number of circlings observed for 30 min at 10 mg/kg orally administered dose in rats

Rattus norvegicus [7] = assay: Effect of compound on peripheral cholinergic effects in male wistar rats when administered orally at a dose of 30 mg/Kg; fasciculation, salivation; type: functional, organism-based
Rattus norvegicus [8] = assay: Effect of compound on peripheral cholinergic effects in male wistar rats when administered orally at a dose of 10 mg/Kg; fasciculation, lacrimation; type: functional, organism-based
Rattus norvegicus [9] = species on record: Rattus norvegicus; assay: animal or person; settings: po
Description: Tested for effective inhibition by peroral administration

Rattus norvegicus [10] = species on record: Rattus norvegicus; assay: animal or person; settings: read-out: MED
Description: Ameliorating effects on diazepam-induced memory impairment of passive avoidance response (no of rats)

Rattus norvegicus [11] = assay: Number of circlings observed for 30 min at 1 mg/kg orally administered dose in rats; type: functional; settings: route oral
Rattus norvegicus [12] = species on record: Rattus norvegicus
Description: Ameliorating effects on diazepam-induced memory impairment of passive avoidance response (no of rats) by peroral administration

[13] = ED50/MED ratio; type: functional
[14] = Acute toxicity in rat by peroral administration; type: organism-based; settings: in vivo, po
[15] = LD50/MED ratio; type: ADME; settings: read-out: Therapeutic index
Rattus norvegicus [16] = species on record: Rattus norvegicus; assay: Inhibition of circling behavior, percentage of control was reported; (p<0.05); type: functional; design: scale not given: the % may be the effect or the level left
Rattus norvegicus [17] = assay: Effect of compound on peripheral cholinergic effects in male wistar rats when administered orally at a dose of 3 mg/Kg; fasciculation; type: functional, organism-based
Rattus norvegicus [18] = assay: Effect of compound on peripheral cholinergic effects in male wistar rats when administered orally at a dose of 30 mg/Kg; fasciculation, lacrimation, salivation; type: functional, organism-based
Rattus norvegicus [19] = assay: Effect of compound on peripheral cholinergic effects in male wistar rats when administered orally at a dose of 1 mg/Kg; No significant change; type: functional, organism-based
Rattus norvegicus [20] = assay: Effect of compound on peripheral cholinergic effects in male wistar rats when administered orally at a dose of 3 mg/Kg; salivation; type: functional, organism-based
Rattus norvegicus [21] = assay: Effect of compound on peripheral cholinergic effects in male wistar rats when administered orally at a dose of 30 mg/Kg; […]; type: functional, organism-based
Rattus norvegicus [22] = assay: Effect of compound on peripheral cholinergic effects in male wistar rats when administered orally at a dose of 10 mg/Kg; fasciculation, salivation; type: functional, organism-based
Rattus norvegicus [23] = assay: Effect of compound on peripheral cholinergic effects in male wistar rats when administered orally at a dose of 30 mg/Kg; fasciculation, diarrhea; type: functional, organism-based

Row | Structure (SMILES) | No. of circlings (Rattus norvegicus [1]) | Activity (Rattus norvegicus [2]) | Activity (Rattus norvegicus [3]) | IC50 (Acetylcholinesterase) [nM] | also measured
1 | CN1CCCc2ccc(C(=O)CCC3CCN(Cc4ccccc4)CC3)cc21 | 105.6 | Fasciculation | No activity | – | Activity (Rattus norvegicus [4]): Fasciculation
2 | O=C(CCC1CCN(Cc2ccc(Cl)cc2)CC1)c1ccc2c(c1)CCN2 | – | – | – | 6360 | –
3 | O=C(CCC1CCN(Cc2ccccc2F)CC1)c1ccc2c(c1)CCN2 | – | – | No activity | 43 | Activity (Rattus norvegicus [5]): Salivation; No. of circlings (Rattus norvegicus [6]): 86.7; Activity (Rattus norvegicus [7]): Fasciculation, Salivation
4 | O=C(CCC1CCN(Cc2ccccc2)CC1)c1ccc2c(c1)CCN2 | 52.4 | – | No activity | – | Activity (Rattus norvegicus [8]): Fasciculation, Lacrimation; Activity (Rattus norvegicus [4]): Fasciculation, Lacrimation
5 | O=C(CCC1CCN(Cc2cccc(Cl)c2)CC1)c1ccc2c(c1)CCCN2Cc1ccccc1 | – | – | – | 164 | No. of circlings (Rattus norvegicus [6]): 88
6 | O=C(CCC1CCN(Cc2cccc(F)c2)CC1)c1ccc2c(c1)NCCCC2 | 98.4 | Fasciculation | No activity | – | Activity (Rattus norvegicus [4]): Fasciculation, Lacrimation
7 | O=C(CCC1CCN(Cc2ccccc2)CC1)c1ccc2c(c1)NCCCC2 [ZANAPEZIL] | 75.1 | Fasciculation | No activity | 97.7 | ED50 (Rattus norvegicus [9]): 10.2 mg/kg; minimal effective dose (Rattus norvegicus [10]): 1 mg/kg; No. of circlings (Rattus norvegicus [11]): 87.5; Avoidance time (Rattus norvegicus [12]): 106.6 s and 192.2 s and 193.2 s; Central selectivity [13]: 10.2; LD50 [14]: 334 mg/kg; selectivity ratio [15]: 334; Activity (Rattus norvegicus [4]): Fasciculation, Lacrimation; Control (Rattus norvegicus [16]): 69.9%
8 | CCCN1CCc2cc(C(=O)CCC3CCN(Cc4ccccc4)CC3)ccc21 | – | – | – | – | No. of circlings (Rattus norvegicus [6]): 81
9 | O=C(CCC1CCN(Cc2ccccc2)CC1)c1ccc2c(c1)N(Cc1ccccc1)CCC2 | – | – | – | 1490 | –
10 | CN1CCCc2cc(C(=O)CCC3CCN(Cc4cccc(Cl)c4)CC3)ccc21 | 54.5 | – | – | 24 | Activity (Rattus norvegicus [17]): Fasciculation; No. of circlings (Rattus norvegicus [11]): 76.5; Activity (Rattus norvegicus [8]): Fasciculation, Lacrimation; Activity (Rattus norvegicus [18]): Fasciculation, Lacrimation, Salivation; Activity (Rattus norvegicus [19]): No activity; Control (Rattus norvegicus [16]): 58%
11 | O=C(CCC1CCN(Cc2cccc([N+](=O)[O-])c2)CC1)c1ccc2c(c1)CCN2 | – | – | – | – | No. of circlings (Rattus norvegicus [6]): 91.1
12 | O=C(CCC1CCN(Cc2ccccc2)CC1)c1ccc2c(c1)CCCCN2 | 94.7 | Fasciculation | No activity | – | Activity (Rattus norvegicus [7]): Fasciculation, Salivation
13 | Cc1cccc(CN2CCC(CCC(=O)c3ccc4c(c3)CCN4)CC2)c1 | 104 | Fasciculation | No activity | – | –
14 | O=C(CCC1CCN(Cc2ccccc2)CC1)c1ccc2c(c1)NCCCCC2 | – | – | – | – | No. of circlings (Rattus norvegicus [11]): 60.7; Activity (Rattus norvegicus [8]): Fasciculation, Lacrimation; Activity (Rattus norvegicus [20]): Salivation; Activity (Rattus norvegicus [19]): No activity; Activity (Rattus norvegicus [4]): Fasciculation, Lacrimation
15 | O=C(CCC1CCN(Cc2cccc(F)c2)CC1)c1ccc2c(c1)CCN2 | 84.3 | Fasciculation | No activity | – | –
16 | CCN1CCc2cc(C(=O)CCC3CCN(Cc4ccccc4)CC3)ccc21 | 89.7 | Fasciculation | No activity | – | Activity (Rattus norvegicus [7]): Fasciculation, Salivation
17 | O=C(CCC1CCN(Cc2ccc(F)cc2)CC1)c1ccc2c(c1)CCN2 | 107.4 | – | No activity | 89 | Activity (Rattus norvegicus [8]): Fasciculation, Lacrimation; Activity (Rattus norvegicus [4]): Fasciculation, Lacrimation
18 | COc1ccccc1CN1CCC(CCC(=O)c2ccc3c(c2)NCCCC3)CC1 | – | – | – | 2620 | –
19 | Cc1cccc(CN2CCC(CCC(=O)c3ccc4c(c3)NCCCC4)CC2)c1 | – | – | No activity | 224 | No. of circlings (Rattus norvegicus [6]): 61.4; Activity (Rattus norvegicus [21]): Fasciculation
20 | COc1cccc(CN2CCC(CCC(=O)c3ccc4c(c3)NCCCC4)CC2)c1 | – | – | – | 847 | –

Row | Structure (SMILES) | No. of circlings (Rattus norvegicus [1]) | Activity (Rattus norvegicus [2]) | Activity (Rattus norvegicus [3]) | IC50 (Acetylcholinesterase) [nM] | also measured
21 | CN1CCc2cc(C(=O)CCC3CCN(Cc4ccccc4)CC3)ccc21 | 68.7 | – | No activity | – | Activity (Rattus norvegicus [8]): Fasciculation, Lacrimation; No. of circlings (Rattus norvegicus [6]): 51.9; Activity (Rattus norvegicus [18]): Fasciculation, Lacrimation, Salivation; Control (Rattus norvegicus [16]): 56.4%
22 | O=C(CCC1CCN(Cc2ccccc2)CC1)c1ccc2c(c1)N(Cc1ccccc1)CC2 | – | – | – | 853 | –
23 | O=C(CCC1CCN(Cc2cccc(Cl)c2)CC1)c1ccc2c(c1)CCCN2 | 77.4 | Fasciculation | – | 54 | Activity (Rattus norvegicus [17]): Fasciculation; No. of circlings (Rattus norvegicus [11]): 70.1; Activity (Rattus norvegicus [19]): No activity; Activity (Rattus norvegicus [4]): Fasciculation, Lacrimation
24 | CCCCCN1CCc2cc(C(=O)CCC3CCN(Cc4ccccc4)CC3)ccc21 | 79 | – | No activity | – | Activity (Rattus norvegicus [22]): Fasciculation, Salivation
25 | O=C(CCC1CCN(Cc2cccc(Cl)c2)CC1)c1ccc2c(c1)NCCCC2 | – | – | – | 333 | –
26 | CN1CCCCc2ccc(C(=O)CCC3CCN(Cc4ccccc4)CC3)cc21 | 100.3 | Fasciculation | No activity | – | –
27 | COc1ccccc1CN1CCC(CCC(=O)c2ccc3c(c2)CCN3)CC1 | – | – | – | 812 | –
28 | CCCN1CCCCc2ccc(C(=O)CCC3CCN(Cc4ccccc4)CC3)cc21 | – | – | – | 1330 | –
29 | O=C(CCC1CCN(Cc2cccc([N+](=O)[O-])c2)CC1)c1ccc2c(c1)NCCCC2 | – | – | – | 390 | –
30 | CCCCN1CCc2cc(C(=O)CCC3CCN(Cc4ccccc4)CC3)ccc21 | 86.4 | Fasciculation | No activity | – | Activity (Rattus norvegicus [23]): Fasciculation, Diarrhea
31 | CCN1CCCCc2ccc(C(=O)CCC3CCN(Cc4ccccc4)CC3)cc21 | – | – | – | 376 | –
32 | O=C(CCC1CCN(Cc2cccc(Cl)c2)CC1)c1ccc2c(c1)CCN2 | – | – | – | 59 | No. of circlings (Rattus norvegicus [6]): 94.9
33 | O=C(CCC1CCN(Cc2ccccc2)CC1)c1ccc2c(c1)NCCC2 | 60.5 | Fasciculation | No activity | – | –
34 | O=C(CCC1CCN(Cc2ccccc2)CC1)c1ccc2c(c1)N(Cc1ccccc1)CCCC2 | – | – | – | 3140 | –
35 | O=C(CCC1CCN(Cc2ccc(F)cc2)CC1)c1ccc2c(c1)NCCCC2 | – | – | – | 393 | –
36 | O=C(CCC1CCN(Cc2ccccc2)CC1)c1ccc2c(c1)NCC2 | – | – | – | – | No. of circlings (Rattus norvegicus [11]): 107.9
37 | O=C(CCC1CCN(Cc2ccccc2)CC1)c1ccc2c(c1)CCN2Cc1ccccc1 | 66.8 | Fasciculation | No activity | – | Activity (Rattus norvegicus [4]): Fasciculation, Lacrimation
38 | O=C(CCC1CCN(Cc2ccccc2Cl)CC1)c1ccc2c(c1)CCN2 | – | – | – | 76 | No. of circlings (Rattus norvegicus [6]): 67.5
39 | COc1cccc(CN2CCC(CCC(=O)c3ccc4c(c3)CCN4)CC2)c1 | – | – | – | 2680 | –
